What follows are substances tested on HLA-A*24 (assay: MHC binding assay, UV-ligand exchange with beta2m ELISA, HLA-A*24). Details: binding to HLA-A*24 ranged by peptide exchange yield (UV-ligand exchange, beta2m ELISA).
Set-up: species or system human
Source text: Candidate peptides for T cell based therapies according to the present invention were further tested for their MHC binding capacity (affinity). The individual peptide-MHC complexes were produced by UV-ligand exchange, where a UV-sensitive peptide is cleaved upon UV-irradiation, and exchanged with the peptide of interest as analyzed. Only peptide candidates that can effectively bind and stabilize the peptide-receptive MHC molecules prevent dissociation of the MHC complexes. To determine the yield of the exchange reaction, an ELISA was performed based on the detection of the light chain (ß2 m) of stabilized MHC complexes. The assay was performed as generally described in Rodenko et al. (Rodenko et al., 2006).
96 well MAXISorp plates (NUNC) were coated over night with 2 ug/ml streptavidin in PBS at room temperature, washed 4× and blocked for 1 h at 37° C. in 2% BSA containing blocking buffer. […] Peptide-MHC monomers of the UV-exchange reaction were diluted 100 fold in blocking buffer. Samples were incubated for 1 h at 37° C., washed four times, incubated with 2 ug/ml HRP conjugated anti-β2 m for 1h at 37° C., washed again and detected with TMB solution that is stopped with […]. Absorption was measured at 450 nm. Candidate peptides that show a high exchange yield (preferably higher than 50%, most preferred higher than 75%) are generally preferred for a generation and production of antibodies or fragments thereof, and/or T cell receptors or fragments thereof, as they show sufficient avidity to the MHC molecules and prevent dissociation of the MHC complexes.

Row | Peptide exchange | Substance
1 | +++ (50%-75% = +++) | 240 (YYFFVQEKI; listed as Homo sapiens) [compound 240]
2 | +++ (50%-75% = +++) | 241 (SYVKVLHHL; listed as Homo sapiens) [compound 241]
3 | +++ (50%-75% = +++) | 244 (VHFEDTGKTLLF; listed as Homo sapiens) [compound 244]
4 | ++ (20%-49% = ++) | 246 (KYLSVQLTL; listed as Homo sapiens) [compound 246]
5 | ++++ (>=75% = ++++) | 248 (AFPTFSVQL; listed as Homo sapiens) [compound 248]
6 | ++++ (>=75% = ++++) | 249 (RYHPTTCTI; listed as Homo sapiens) [compound 249]
7 | ++ (20%-49% = ++) | 250 (KYPDIASPTF; listed as Homo sapiens) [compound 250]
8 | +++ (50%-75% = +++) | 251 (VYTKALSSL; listed as Homo sapiens) [compound 251]
9 | +++ (50%-75% = +++) | 253 (IYGFFNENF; listed as Homo sapiens) [compound 253]
10 | +++ (50%-75% = +++) | 254 (KYLESSATF; listed as Homo sapiens) [compound 254]
11 | +++ (50%-75% = +++) | 255 (VYQKIILKF; listed as Homo sapiens) [compound 255]
12 | +++ (50%-75% = +++) | 256 (VFGKSAYLF; listed as Homo sapiens) [compound 256]
13 | +++ (50%-75% = +++) | 258 (AYAQLGYLL; listed as Homo sapiens) [compound 258]
14 | ++ (20%-49% = ++) | 259 (YFIKSPPSQLF; listed as Homo sapiens) [compound 259]
15 | +++ (50%-75% = +++) | 263 (RYILENHDF; listed as Homo sapiens) [compound 263]
16 | ++++ (>=75% = ++++) | 265 (SYLNEAFSF; listed as Homo sapiens) [compound 265]
17 | ++ (20%-49% = ++) | 267 (SFLNIEKTEILF; listed as Homo sapiens) [compound 267]
18 | +++ (50%-75% = +++) | 269 (QYPYLQAFF; listed as Homo sapiens) [compound 269]
19 | ++++ (>=75% = ++++) | 271 (RFLMKSYSF; listed as Homo sapiens) [compound 271]
20 | +++ (50%-75% = +++) | 273 (IYGEKLQFIF; listed as Homo sapiens) [compound 273]
21 | ++++ (>=75% = ++++) | 274 (KQLDIANYELF; listed as Homo sapiens) [compound 274]
22 | ++++ (>=75% = ++++) | 275 (KYGTLDVTF; listed as Homo sapiens) [compound 275]

Row | Peptide exchange | Substance
23 | ++++ (>=75% = ++++) | 276 (QYLDVLHAL; listed as Homo sapiens) [compound 276]
24 | +++ (50%-75% = +++) | 277 (FYTFPFQQL; listed as Homo sapiens) [compound 277]
25 | ++++ (>=75% = ++++) | 280 (TYNPNLQDKL; listed as Homo sapiens) [compound 280]
26 | +++ (50%-75% = +++) | 281 (NYSPGLVSLIL; listed as Homo sapiens) [compound 281]
27 | +++ (50%-75% = +++) | 282 (NYLVDPVTI; listed as Homo sapiens) [compound 282]
28 | +++ (50%-75% = +++) | 283 (EYQEIFQQL; listed as Homo sapiens) [compound 283]
29 | +++ (50%-75% = +++) | 285 (VYVGDALLHAI; listed as Homo sapiens) [compound 285]
30 | ++++ (>=75% = ++++) | 286 (SYGTILSHI; listed as Homo sapiens) [compound 286]
31 | +++ (50%-75% = +++) | 287 (IYNPNLLTASKF; listed as Homo sapiens) [compound 287]
32 | ++++ (>=75% = ++++) | 292 (FYPQIINTF; listed as Homo sapiens) [compound 292]
33 | +++ (50%-75% = +++) | 294 (RFPVQGTVTF; listed as Homo sapiens) [compound 294]
34 | ++++ (>=75% = ++++) | 296 (SYQVIFQHF; listed as Homo sapiens) [compound 296]
35 | ++++ (>=75% = ++++) | 297 (TYIDTRTVF; listed as Homo sapiens) [compound 297]
36 | +++ (50%-75% = +++) | 300 (TYPSQLPSL; listed as Homo sapiens) [compound 300]
37 | +++ (50%-75% = +++) | 303 (LYSVIKEDF; listed as Homo sapiens) [compound 303]
38 | ++++ (>=75% = ++++) | 305 (NYENKQYLF; listed as Homo sapiens) [compound 305]
39 | +++ (50%-75% = +++) | 307 (GYAFTLPLF; listed as Homo sapiens) [compound 307]
40 | +++ (50%-75% = +++) | 308 (TFDGHGVFF; listed as Homo sapiens) [compound 308]
41 | ++ (20%-49% = ++) | 309 (KYYRQTLLF; listed as Homo sapiens) [compound 309]
42 | +++ (50%-75% = +++) | 310 (IYAPTLLVF; listed as Homo sapiens) [compound 310]
43 | +++ (50%-75% = +++) | 312 (SYTSVLSRL; listed as Homo sapiens) [compound 312]

The next lines start with the substance.

Row | Substance | Peptide exchange
44 | 239 (VYAIFRILL; listed as Homo sapiens) [compound 239] | +++ (50%-75% = +++)
45 | 242 (VYGEPRELL; listed as Homo sapiens) [compound 242] | +++ (50%-75% = +++)
46 | 243 (SYLELANTL; listed as Homo sapiens) [compound 243] | +++ (50%-75% = +++)
47 | 245 (LYPQLFVVL; listed as Homo sapiens) [compound 245] | +++ (50%-75% = +++)
48 | 247 (SFTKTSPNF; listed as Homo sapiens) [compound 247] | +++ (50%-75% = +++)
49 | 252 (AFGQETNVPLNNF; listed as Homo sapiens) [compound 252] | ++++ (>=75% = ++++)
50 | 257 (IFIDNSTQPLHF; listed as Homo sapiens) [compound 257] | +++ (50%-75% = +++)
51 | 260 (VYMNVMTRL; listed as Homo sapiens) [compound 260] | ++++ (>=75% = ++++)
52 | 261 (GYIKLINFI; listed as Homo sapiens) [compound 261] | ++++ (>=75% = ++++)
53 | 262 (VYSSQFETI; listed as Homo sapiens) [compound 262] | ++++ (>=75% = ++++)
54 | 264 (LYTETRLQF; listed as Homo sapiens) [compound 264] | ++++ (>=75% = ++++)
55 | 266 (KYTDWTEFL; listed as Homo sapiens) [compound 266] | +++ (50%-75% = +++)
56 | 268 (IFITKALQI; listed as Homo sapiens) [compound 268] | ++ (20%-49% = ++)
57 | 270 (YYSQESKVLYL; listed as Homo sapiens) [compound 270] | +++ (50%-75% = +++)
58 | 272 (RYVFPLPYL; listed as Homo sapiens) [compound 272] | ++++ (>=75% = ++++)
59 | 279 (VWLPASVLF; listed as Homo sapiens) [compound 279] | +++ (50%-75% = +++)
60 | 284 (DYLKDPVTI; listed as Homo sapiens) [compound 284] | +++ (50%-75% = +++)
61 | 288 (VYPDTVALTF; listed as Homo sapiens) [compound 288] | ++ (20%-49% = ++)
62 | 289 (FFHEGQYVF; listed as Homo sapiens) [compound 289] | ++++ (>=75% = ++++)
63 | 290 (KYGDFKLLEF; listed as Homo sapiens) [compound 290] | ++++ (>=75% = ++++)
64 | 291 (YYLGSGRETF; listed as Homo sapiens) [compound 291] | +++ (50%-75% = +++)
65 | 293 (VYPHFSTTNLI; listed as Homo sapiens) [compound 293] | ++++ (>=75% = ++++)
66 | 295 (SYLVIHERI; listed as Homo sapiens) [compound 295] | +++ (50%-75% = +++)
67 | 298 (AYKSEVVYF; listed as Homo sapiens) [compound 298] | ++++ (>=75% = ++++)
68 | 299 (KYQYVLNEF; listed as Homo sapiens) [compound 299] | +++ (50%-75% = +++)
69 | 301 (KFDDVTMLF; listed as Homo sapiens) [compound 301] | ++++ (>=75% = ++++)
70 | 302 (LYLPVHYGF; listed as Homo sapiens) [compound 302] | +++ (50%-75% = +++)
71 | 304 (EYNEVANLF; listed as Homo sapiens) [compound 304] | +++ (50%-75% = +++)
72 | 306 (VYPAEQPQI; listed as Homo sapiens) [compound 306] | +++ (50%-75% = +++)
73 | 311 (EYLQNLNHI; listed as Homo sapiens) [compound 311] | ++++ (>=75% = ++++)
